According to PubChem BioAssay AID2060506 (Molecular Pharmacology Branch, DTP, NCI, 2025):
Values joined by “and” are separate entries in the source; they are usually repeats but may differ in a detail not shown here. Identical values can stand only once.

Test system: 598228-144-R-J1-PDC complex spheroid viability
Test: Anticancer human tumor 598228-144-R-J1-PDC patient-derived serous endometrial adenocarcinoma cell line growth inhibition [GQUAD]
Details: for viability, T/C: stronger effect = lower value
Source text: DNA G-quadruplex Stabilizer Agents in Combinations in Complex Spheroids
A high-throughput screen of multi-cell type tumor spheroids was designed to identify active combinations of DNA G-quadruplex stabilizer agents and targeted small molecules. Complex spheroids include a stromal component modeled by human endothelial cells (HUVEC) and fibroblasts modeled by human mesenchymal stem cells (MSCs). The concentration ranges selected for each drug and investigational agent were based upon clinically achievable concentrations if the clinical Cmax of the agent was known.
Compounds. The drugs and investigational agents: pidnarulex (CX-5461; NSC782164), APTO-253 (NSC789042), BRACO-19 (NSC847499), peposertib (NSC802822), ceralasertib (NSC780249), elimusertib (NSC800525), camonsertib (NSC841442), AZD-1390 (NSC803789), olaparib (NSC753686), talazoparib (NSC767125), ART-558 (NSC835418), sotorasib (NSC818433), MRTX-1133 (NSC836407), SN-38 (NSC673596), topotecan (NSC609699), etoposide (NSC141540), doxorubicin (NSC123127), gemcitabine (NSC613327), 5-fluorouracil (NSC19893), paclitaxel (NSC125973), vemurafenib (NSC761431), panobinostat (NSC761190), R-306465 (JNJ-16241199; NSC773264), adavosertib (NSC754352), TP-3654 (NSC805149), carboplatin (NSC241240), KSQ-4279 (NSC840948), and staurosporine (NSC755774) were obtained from the National Cancer Institute (NCI) Developmental Therapeutics Program Chemical Repository (34). The FDA-approved anticancer drug set is available from the NCI Developmental Therapeutics Program. […] The stock solutions were prepared in dimethyl sulfoxide (DMSO, Sigma-Aldrich, St. Louis, MO, cat. D2650) at 800-fold the tested concentration and stored at -70 degrees C prior to their use. All drugs and investigational agents were tested over a range starting from a high concentration at or near the clinical Cmax and decreasing in half-log increments. If the clinical Cmax for an agent had not been determined, the highest concentration tested was 10 microM.
2.3 Cell Culture. All cells were maintained in an incubator at 37 degrees C and 5% CO2 with 95% humidity. The PDC lines were cultured according to standard operating procedures established by the NCI PDMR. All PDCs were thawed and cultured in Matrigel-coated flasks prepared with a working solution of 1X Ham's F-12 nutrient mix, without supplementation (Invitrogen, cat. 11765054), 100 U/mL penicillin-streptomycin (Invitrogen, cat. 15140122), and 2.5% Matrigel (Corning Inc., cat. 354248) for the first three passages. The 857933-349-R-J2-PDC line was cultured in 6C/Colon 1B media, which includes advanced DMEM/F-12 (Thermo Fisher Scientific, cat. 12634028), 10 mM HEPES (Thermo Fisher Scientific, cat. 15630080), 1X GlutaMAX supplement (Thermo Fisher Scientific, cat. 35050061), 0.1 mg/mL primocin (InvivoGen, cat. ant-pm-2), 10% defined fetal bovine serum, heat inactivated (HyClone Laboratories Inc., cat. SH30070.03HI), 50% L-WRN conditioned media (ATCC, cat. CRL-3276), 1.25 mM N-Acetyl-L-cysteine (Sigma-Aldrich, cat. A9165), 10 mM nicotinamide (Sigma-Aldrich, cat. N0636), 1X B-27 supplement (Thermo Fisher Scientific, cat. 17504044), 1X N-2 supplement (Thermo Fisher Scientific, cat. 17502048), 10 microM Y-27632 dihydrochloride (Tocris Bioscience, cat. 1254), and 50 ng/mL human EGF recombinant protein (Thermo Fisher Scientific, cat. PHG0311). The 485176-168-R4-J1-PDC line was cultured in Panc media, which includes all 6C/Colon 1B media components plus 100 ng/mL human FGF-10 (Thermo Fisher Scientific, cat. 100-26), 500 nM SB-431542 (Selleckchem, cat. S1067), and gastrin (Tocris, cat. 3006).
[…]
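Also: spheroids exposed to the agents for one week before reading.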
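For viability, T/C in this document: percent of vehicle DMSO control viability so 100% = untreated growth.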

SMILES | IC50 (curve of compound) | IC50 (compound alone, run of 03/18/2024) | IC50 (compound alone, run of 03/26/2024) [µM] | viability, T/C (compound 0.0316 µM) | viability, T/C (compound 0.1 µM) | viability, T/C (compound 0.316 µM) | viability, T/C (compound 1 µM) | viability, T/C (compound 3.16 µM) | viability, T/C (compound 10 µM) | viability, T/C (compound 0.000999 µM) | viability, T/C (compound 0.00316 µM) | viability, T/C (compound 0.00999 µM) | viability, T/C (compound 0.0999 µM)
COc1ccc([C@@H](O)c2cc(-c3ncnc4cc(N5CCOCC5)ccc34)c(F)cc2Cl)nn1 | 3.6 µM and 1.8 µM and 3.15 µM | – | – | 97.8% and 102% and 84.3% | 90% and 101% and 85.3% | 89.9% and 67.4% and 82.6% | 74.7% and 62.1% and 82.8% | 52.1% and 42.8% and 49.9% | 32.1% and 30% and 30.5% | – | – | – | –
COc1ncnc(C2CC2)c1-c1ncc2cnn(Cc3ccc(-c4nc(C(F)(F)F)cn4C(C)C)cc3)c2n1 | > 10 µM | – | – | 112% and 120% and 109% | 99.5% and 93.3% and 79.8% | 107% and 103% and 102% | 106% and 104% and 102% | 97.8% and 112% and 113% | 105% and 117% and 89% | – | – | – | –
Cc1[nH]c2ccc(F)cc2c1-c1nc2c3cccnc3c3ncccc3c2[nH]1 | – | > 10 µM and 3.62 µM | > 10 | 99.3% [middle of 12 runs] | – | – | – | 46.7% [middle of 12 runs] | 68.5% [middle of 12 runs] | – | – | – | –
Cc1[nH]c2ccccc2c1CCNCc1ccc(/C=C/C(=O)NO)cc1 | 0.0631 µM and 0.0565 µM and 0.0673 µM | – | – | 83.5% and 70.5% and 71.7% | – | 0.72% and 0.83% and 0.61% | – | – | – | 109% and 102% and 101% | 97.9% and 99.4% and 93.7% | 108% and 97.5% and 99% | 27.5% and 29.3% and 38.2%

Continued, in another order:

IC50 (curve of compound) | IC50 (compound alone, run of 03/18/2024) | IC50 (compound alone, run of 03/26/2024) [µM] | SMILES | viability, T/C (compound 0.0316 µM) | viability, T/C (compound 0.1 µM) | viability, T/C (compound 0.316 µM) | viability, T/C (compound 1 µM) | viability, T/C (compound 3.16 µM) | viability, T/C (compound 10 µM) | viability, T/C (compound 0.000999 µM) | viability, T/C (compound 0.00316 µM) | viability, T/C (compound 0.00999 µM) | viability, T/C (compound 0.0999 µM)
9.17 µM and 7.57 µM and 6.25 µM | – | – | COc1cc(C2c3cc4c(cc3C(OC3OC5COC(C)OC5C(O)C3O)C3COC(=O)C23)OCO4)cc(OC)c1O (stereo not given) | 89.4% and 97.4% and 93.6% | 96.5% and 82.4% and 72.5% | 74.2% and 76.2% and 74.6% | 78.1% and 70.3% and 58.1% | 64.4% and 59.9% and 78.7% | 48% and 46% and 36% | – | – | – | –
0.755 µM and 0.646 µM and 0.915 µM | – | – | COc1cccc2c1C(=O)c1c(O)c3c(c(O)c1C2=O)CC(O)(C(=O)CO)CC3OC1CC(N)C(O)C(C)O1 (stereo not given) | 93.1% and 76% and 90.5% | 76.3% and 67.8% and 76.2% | 78.5% and 73.6% and 72.8% | 41.3% and 36.2% and 49.6% | 1.91% and 2.01% and 1.77% | 0.43% and 0.5% and 0.55% | – | – | – | –
